Reference: ChEMBL document CHEMBL3808352, “Pyrazolylamine Derivatives Reveal the Conformational Switching between Type I and Type II Binding Modes of Anaplastic Lymphoma Kinase (ALK)” (J Med Chem, 2016)

Experiment: Lipophilicity, log P of the compound
Assay type: physicochemical
Conditions: octanol/water

Row | SMILES | logP
1 | Cc1cc(-c2cc(NC(=O)c3ccc(CN4CCN(C)CC4)cc3)[nH]n2)ccc1N | 2.61
2 | Cc1cc(-c2cc(NC(=O)c3ccc(CN4CCN(C)CC4)cc3)[nH]n2)ccc1NC(=O)Nc1cc(C(C)(C)C)on1 | 4.54
